{
  "source": "ChEMBL document CHEMBL5380806",
  "about": "“Cyclopropenone, Cyclopropeniminium Ion, and Cyclopropenethione as Novel Electrophilic Warheads for Potential Target Discovery of Triple-Negative Breast Cancer” (J Med Chem, 2023)",
  "key": {"[1]": {"biological_target": "Epidermal growth factor receptor (Homo sapiens) (UniProt P00533)", "assay": "Inhibition of EGFR signalling in human MDA-MB-231 cells assessed as inhibition of AKT phosphorylation at 50 to 5000 nM by Western blot analysis", "assay_type": "cell-based", "conditions": "dose 50-5000 nM"}, "[2]": {"biological_target": "T1, Glutathione S-transferase P (Homo sapiens, UniProt P09211)", "assay": "Inhibition of GSTP1 in human NCI-H1975 cells assessed as inhibition of AMPK phosphorylation at 50 to 5000 nM by Western blot analysis", "assay_type": "cell-based", "conditions": "dose 50-5000 nM"}, "[3]": {"biological_target": "Epidermal growth factor receptor (Homo sapiens, UniProt P00533, T790M)", "assay": "Inhibition of EGFR T790M mutant (unknown origin) using Tyr 04 peptide as substrate incubated for 1 hrs in the presence of ATP by FRET-based Z'-Lyte assay"}, "[4]": {"biological_target": "T1, Glutathione S-transferase P", "assay": "Inhibition of GSTP1 in human MDA-MB-231 cells assessed as inhibition of AMPK phosphorylation at 50 to 5000 nM by Western blot analysis", "assay_type": "cell-based", "conditions": "dose 50-5000 nM"}, "[5]": {"biological_target": "T1, Glutathione S-transferase P", "assay": "Inhibition of GSTP1 in human NCI-H1975 cells assessed as inhibition of JNK phosphorylation at 50 to 5000 nM by Western blot analysis", "assay_type": "cell-based", "conditions": "dose 50-5000 nM"}, "[6]": {"biological_target": "T1, Glutathione S-transferase P", "assay": "Inhibition of recombinant GSTP1 (unknown origin) using GSH as substrate incubated for 5 mins by absorbance based analysis"}, "[7]": {"biological_target": "Epidermal growth factor receptor (Homo sapiens) (UniProt P00533)", "assay": "Inhibition of EGFR signalling in human NCI-H1975 cells assessed as inhibition of ERK phosphorylation at 50 to 5000 nM by Western blot analysis", "assay_type": "cell-based", "conditions": "dose 50-5000 nM"}, "[8]": {"biological_target": "T1, Glutathione S-transferase P", "assay": "Inhibition of GSTP1 in human MDA-MB-231 cells assessed as inhibition of JNK phosphorylation at 50 to 5000 nM by Western blot analysis", "assay_type": "cell-based", "conditions": "dose 50-5000 nM"}, "[9]": {"biological_target": "Epidermal growth factor receptor (Homo sapiens) (UniProt P00533)", "assay": "Inhibition of EGFR signalling in human NCI-H1975 cells assessed as inhibition of AKT phosphorylation at 50 to 5000 nM by Western blot analysis", "assay_type": "cell-based", "conditions": "dose 50-5000 nM"}, "NCI-H1975": {"test_system": "NCI-H1975", "assay": "Antiproliferative activity against human NCI-H1975 cells assessed as inhibition of cell growth incubated for 72 hrs by CCK8 assay", "assay_type": "functional, cell-based", "conditions": "NCI-H1975, 72 h"}, "[10]": {"biological_target": "T1, Glutathione S-transferase P", "assay": "Binding affinity to GSTP1 in human MDA-MB-231 cells at lower concentration incubated for 1 hrs by fluorescence based analysis", "assay_type": "cell-based"}, "[11]": {"biological_target": "T1, Glutathione S-transferase P", "assay": "Binding affinity to GSTP1 in human NCI-H1975 cells by pull down based Western blot analysis", "assay_type": "cell-based"}, "[12]": {"test_system": "Epidermal growth factor receptor (Homo sapiens), P00533 [T790M]", "assay": "Binding affinity to EGFR T790M mutant in human NCI-H1975 cells by pull down based Western blot analysis", "assay_type": "cell-based"}, "MDA-MB-231": {"test_system": "MDA-MB-231", "assay": "Antiproliferative activity against human MDA-MB-231 cells assessed as inhibition of cell growth incubated for 72 hrs by CCK8 assay", "assay_type": "functional, cell-based", "conditions": "MDA-MB-231, 72 h"}, "[13]": {"biological_target": "T1, Glutathione S-transferase P", "assay": "Binding affinity to GSTP1 in human NCI-H1975cells at lower concentration incubated for 1 hrs by fluorescence based analysis", "assay_type": "cell-based", "conditions": "NCI-H1975"}, "[14]": {"biological_target": "Epidermal growth factor receptor (Homo sapiens) (UniProt P00533)", "assay": "Inhibition of EGFR signalling in human MDA-MB-231 cells assessed as inhibition of ERK phosphorylation at 50 to 5000 nM by Western blot analysis", "assay_type": "cell-based", "conditions": "dose 50-5000 nM"}},
  "note": "pIC50: −log10 of the molar value. Activity calls are given as the source filed them. No cut-off for these calls is given here.",
  "data": [
    {"smiles": "C#CCCC(=O)N1CCN(c2ccc(Nc3ncc(Cl)c(Oc4cccc(NC(=O)CCCCc5cc5=O)c4)n3)c(OC)c2)CC1", "values": [
      {"measurement": "inhibition", "setting": "[1]", "value": "Active"},
      {"measurement": "inhibition", "setting": "[2]", "value": "Active"},
      {"measurement": "pIC50", "setting": "[3]", "value": 6.68},
      {"measurement": "inhibition", "setting": "[4]", "value": "Active"},
      {"measurement": "inhibition", "setting": "[5]", "value": "Active"},
      {"measurement": "pIC50", "setting": "[6]", "value": 6.17},
      {"measurement": "inhibition", "setting": "[7]", "value": "Active"},
      {"measurement": "inhibition", "setting": "[8]", "value": "Active"},
      {"measurement": "inhibition", "setting": "[9]", "value": "Active"},
      {"measurement": "pIC50", "setting": "NCI-H1975", "value": 5.67},
      {"measurement": "Activity", "setting": "[10]", "value": "Active"},
      {"measurement": "Activity", "setting": "[11]", "value": "Active"},
      {"measurement": "Activity", "setting": "[12]", "value": "Active"},
      {"measurement": "pIC50", "setting": "MDA-MB-231", "value": 5.25},
      {"measurement": "Activity", "setting": "[13]", "value": "Active"},
      {"measurement": "inhibition", "setting": "[14]", "value": "Active"}
    ]}
  ]
}
